Assay results reported in patent US11123332B2 (priority 2018, dated 2021).
“Also recorded” adds a separate entry of the source. Like-named read-outs stand apart in the source and are kept apart here.

How the values were obtained:
insomnia = settings: three-month efficacy study; cited from earlier work
[1] = cited from earlier work; for Apparent t1/2: harmonic mean N = 10; for Tmax: median N = 10
[2] = tested on: mouse brain (c-fos expression)
Text: A unique and novel approach to preclinical testing of psychiatric drugs is based on the proposition that a direct readout of drug-evoked brain activation or inhibition in an animal is the most relevant preclinical assay, because psychiatric drugs exert their effects via activation or inhibition of specific neural circuits and cell types in the brain. […] The method called “pharmacomapping” (implemented by Certerra, Inc. Farmingdale, N.Y.) is based on a largely automated drug-screening platform that comprises whole-brain detection of drug-evoked neuronal activation represented by drug-evoked expression of the immediate early gene (IEG) c-fos (Herrera and Robertson 1996). Until now, the detection of c-fos as a marker of brain activation has been done by laborious methods of in situ hybridization or immunohistochemistry in brain tissue sections, followed by mounting the sections on microscopic slides, manual imaging, and largely visual quantification. Nevertheless, over the last two decades a number of studies used these methods to test drug-evoked activity in the mouse or rat brain for various psychoactive medications, including antipsychotics, antidepressants, stimulants and anxiolytics (Engber et al., 1998; Kiss, 2018; Salminen et al., 1996; SEMBA et al., 1996; Slattery et al., 2005; Sumner et al., 2004).
In contrast to the older methods, the pharmacomapping method uses automated and standardized whole-brain immunostaining and brain clearing together with advanced microscopy (light-sheet fluorescence microscopy, LSFM), computational (e.g. machine learning) and statistical methods (FIG. 1). The first generation of this platform used serial two-photon tomography (STPT) as a method for imaging and c-fos-GFP mice expressing green fluorescent protein (GFP) under the control of the c-fos promoter (US 20140297199A1).

mouse = assay: forced swim test; type: in vivo; settings: for time spent in floating (immobility) during a 6 min forced swim: compared to control vehicle-treated group, FIG. 5; for time spent floating in forced swim: single dose 10 mg/kg, vs vehicle
Description: The forced swim test is a frequently used behavioral protocol with a well-established therapeutic predictability for a broad range of antidepressants including ketamine (Porsolt et al. 1977; Cryan and Mombereau 2004; Cryan et al. 2005; Lucki et al. 2001). In this test the mouse is put in a beaker filled with water and the time spent struggling, swimming and floating is measured, with the time spent floating when the mouse stops struggling to swim—being used as a behavioral correlate of depression.

[3] = tested on: patients with severe major depressive disorder; settings: daily oral gaboxadol 5 mg or 10 mg with escitalopram 20 mg, 490 patients; cited from earlier work
[4] = tested on: combined delta, theta and alpha activity; settings: 160 minutes after the first treatment; Nutt et al (2015); cited from earlier work
[5] = 10 mg I.V., geometric mean N = 10
[6] = 10 mg Oral, geometric mean N = 10
[7] = acute single dose 10 mg/kg, 10 mg/kg

Oc1noc2c1CCNC2 [gaboxadol, 4,5,6,7-tetrahydroisoxazolo (5,4-c) pyridin-3-ol]
effects in sleep onset and sleep maintenance (insomnia): failed to show significant effects | fe ([1]; 2.5 mg single oral dose, geometric mean N = 10): 43% | AUC0-∞ ([1]; 2.5 mg single oral dose, geometric mean N = 10, potency adjusted): 0.09 µg·h/mL | Apparent t1/2 ([1]; 2.5 mg single oral dose): 1.5 h | Tmax ([1]; 2.5 mg single oral dose): 0.5 h | fe ([1]; 5 mg single oral dose, geometric mean N = 10): 45% | Apparent t1/2 ([1]; 5 mg single oral dose): 1.5 h | Tmax ([1]; 5 mg single oral dose): 0.6 h | AUC0-∞ [1, 5]: 0.38 µg·h/mL | fe [1, 5]: 53% | Apparent t1/2 ([1]; 10 mg I.V.): 1.5 h | CLR [1, 6]: 250 mL/min | fe [1, 6]: 53% | Apparent t1/2 ([1]; 10 mg Oral): 1.6 h | Tmax ([1]; 10 mg Oral): 0.5 h | fe ([1]; 15 mg single oral dose, geometric mean N = 10): 50% | Apparent t1/2 ([1]; 15 mg single oral dose): 1.5 h | Tmax ([1]; 15 mg single oral dose): 0.5 h | fe ([1]; 20 mg single oral dose, geometric mean N = 10): 53% | Apparent t1/2 ([1]; 20 mg single oral dose): 1.6 h | Tmax ([1]; 20 mg single oral dose): 0.6 h | dose proportionality of plasma AUC0-∞ and Cmax ([1]; dose range 2.5 to 20 mg oral): dose proportional increases | half-life (t1/2) ([1]; independent of dose across 2.5 to 20 mg oral): 1.5 h | drug-evoked brain activation (pharmacomap) ([2]; 3 mg/kg alone): neither gaboxadol at 3 mg/kg nor ketamine at 6 mg/kg alone evoked any brain activation detectable | drug-evoked brain activation (pharmacomap) [2, 7]: very similar brain activation as ketamine | drug-evoked brain activation (pharmacomap) ([2]; acute single dose 10 mg/kg, listed as Gaboxadol, 10 mg/kg): broad brain activation that is highly similar to that of ketamine | time spent in floating (immobility) during a 6 min forced swim (mouse): significantly reduced | time spent floating in forced swim (mouse; 1 hour after drug delivery): nearly identical behavioral effect as the ketamine group | time spent floating in forced swim (mouse; 24 hours after drug delivery): nearly identical behavioral effect as the ketamine group | additional benefit in treatment of severe major depressive disorder [3]: no additional benefit | whole head MEG planar gradiometer increase in combined delta, theta and alpha activity [4]: ≥ +3

CNC1(c2ccccc2Cl)CCCCC1=O (centres unmarked) [ketamine]
drug-evoked brain activation (pharmacomap) ([2]; 6 mg/kg alone): neither gaboxadol at 3 mg/kg nor ketamine at 6 mg/kg alone evoked any brain activation detectable | drug-evoked brain activation (pharmacomap) ([2]; acute single dose 5 mg/kg): modest activation | drug-evoked brain activation (pharmacomap) [2, 7]: very robust and broad activation; also recorded: very broad activation pattern | drug-evoked brain activation (pharmacomap) ([2]; acute single dose 100 mg/kg): modest activation | time spent in floating (immobility) during a 6 min forced swim (mouse): significantly reduced | time spent floating in forced swim (mouse; 1 hour after drug delivery): significantly decreases | time spent floating in forced swim (mouse; 24 hours after drug delivery): significantly decreases
